According to article PMC8297402, “Trifluoromethyl-substituted 3,5-bis(arylidene)-4-piperidones as potential anti-hepatoma and anti-inflammation agents by inhibiting NF-кB activation” (Journal of Enzyme Inhibition and Medicinal Chemistry, 2021):

Legend:
[1] = system: A549; assay: Modified MTT cytotoxicity assay, A549; details: for IC50: Homo sapiens, A549, read-out: Cytotoxicity IC50 A549, MTT, non-small cell lung cancer cell line; for SI (selectivity index) A549: quotient of IC50 for normal (HHL-5) and malignant (A549) cells
[2] = Modified MTT cytotoxicity assay, normal heptical cell line LO2; assay type: cell-based, human; details: human, LO2 cells (normal hepatic cell line), 24 h incubation
Experimental: (§1) The HepG2, SMMC-7721, and LO2 cell lines were maintained at 37 °C, 5% humidified CO2, and 95% atmosphere. Dulbecco's Modified Eagle (DMEM) medium containing 10% foetal bovine serum (FBS) was used for culturing the HepG2 cell line; meanwhile, Roswell Park Memorial Institute (RPMI) 1640 medium containing 10% FBS was used for culturing other cell lines (SMMC-7721, LO2). The HepG2, SMMC-7721 and LO2 cells were seeded in a 96-well plate in 200 μL of medium per well at a density of approximately 8 × 10^3 cells/well and cultured for 24 h, followed by incubation in an incubator of indicated compounds with successive concentrations (10, 5, 2.5, 1.25, 0.625, 0.3125 μg/mL) for 24 h. In the control group, cells were only cultured with culture media. After the media were removed, 20 μL of MTT (5 mg/mL) was added, then cells were incubated for 4 h at 37 °C. […] GraphPad Prism 5 software was used to calculate their IC50 values. Every IC50 value was the average of three replicates. Doxorubicin (DOX) and curcumin were used as positive controls.

[3] = system: A2780; assay: Modified MTT cytotoxicity assay, A2780; details: for IC50: Homo sapiens, A2780, read-out: Cytotoxicity IC50 A2780, MTT, ovarian cancer cell line; for SI (selectivity index) A2780: quotient of IC50 for normal (HHL-5) and malignant (A2780) cells
Experimental: (§3) To further verify the anti-tumour activity, one human non-small cell lung cancer cell line (A549), one human ovarian cancer cell line (A2780), and one human normal heptical cell line (HHL-5) were screened by BAPs (4–30) using a modified MTT assay (Supporting Information). DOX and curcumin were selected as positive controls.
(§4) The optical density (OD) value of each well was measured on a
(§5) multi-well plate reader (TECAN, Mӓnnedorf, Switzerland ) at 570 nm.
(§6) Every IC 50 value was the average of three replicates.
(§7) Doxorubicin (DOX) and Curcumin were used as positive controls.

[4] = system: HepG2; assay: Modified MTT cytotoxicity assay, HepG2; assay type: cell-based, Human; details: for IC50: Homo sapiens, HepG2, 24 h, MTT, 24 h incubation, three replicates, read-out: Cytotoxicity IC50 HepG2; for SI (selectivity index) HepG2: quotient of IC50 for normal (LO2) and malignant (HepG2) cells
Experimental: as §1

[5] = in vitro; details: human
Experimental: as §3, §4, §5, §6, §7

[6] = system: SMMC-7721; assay: Modified MTT cytotoxicity assay, SMMC-7721; assay type: cell-based, Human; details: for IC50: Homo sapiens, SMMC-7721, 24 h, MTT, 24 h incubation, three replicates; for SI (selectivity index) SMMC-7721: quotient of IC50 for normal (LO2) and malignant (SMMC-7721) cells
Experimental: as §1

[7] = system: TNF-α; assay: ELISA of TNF-α release in LPS-stimulated RAW264.7 cells; assay type: cell-based, mouse; details: Mus musculus, RAW264.7, BAPs (5 μM) + LPS (1 μg/mL), RAW264.7, ELISA; read-out: Inhibition rate TNF-α
Experimental: (§2) We tested by inhibiting the secretion of TNF-α and IL-6 to better evaluated the anti-inflammatory effects of BAPs. […] Under the stimulation of LPS (1.0 μg/mL) with RAW264.7 cells, the release of TNF-α and IL-6 was detected. Besides, after treated with BAPs (5.0 μM) and LPS (1.0 μg/mL), the release of TNF-α and IL-6 was measured with an ELISA kit (eBioScience, San Diego, California), respectively. In general terms, pyrrolidine dithiocarbamate (PDTC, 30 μM) or BAP (5.0 μM) was used to pretreat cells for 2 h, respectively. Then, LPS (1.0 μg/mL) was added and cells were incubated for another 22 h. Finally, the culture media were centrifuged at 1000 rpm for 10 min, and the expression levels of TNF-α and IL-6 were determined by ELISA.

[8] = system: IL-6; assay: ELISA of IL-6 release in LPS-stimulated RAW264.7 cells; assay type: cell-based, mouse; details: Mus musculus, RAW264.7, BAPs (5 μM) + LPS (1 μg/mL), RAW264.7, ELISA; read-out: Inhibition rate IL-6
Experimental: as §2

[9] = system: RAW264.7 cell; assay: MTT toxicity pre-experiment on RAW264.7 macrophagocyte; assay type: cell-based, mouse; details: Mus musculus, RAW264.7, BAPs 5 μM, read-out: Survival rate RAW264.7 cell
Experimental: Lipopolysaccharide (LPS) is a key constituent of Gram-negative bacterial endotoxin, which is used to induce an inflammatory response in corresponding inflammatory cells. TNF-α and IL-6 are two kinds of representative pro-inflammatory factors, which produced by LPS-stimulated RAW264.7 macrophage. In our pre-experiments, the toxicity against RAW264.7 macrophagocyte for all title compounds was tested by the MTT assay, and the results were listed in Table 2. The survival rates were above 80% for all BAPs (4-30) at the concentration of 5.0 μM.

[10] = Modified MTT cytotoxicity assay, normal heptical cell line HHL-5; details: human, HHL-5 cells (normal hepatic cell line)
Experimental: as §3, §4, §5, §6, §7

| Compound | IC50 [5] [µM] | melting point [°C] | SI (selectivity), bound stated for A549 and A2780 together ([1]; A549 and A2780 vs HHL-5) | IC50 [1] [µM] | SI (selectivity index) A549 [1] | IC50 at 24 h [2] [µM] | IC50 [3] [µM] | SI (selectivity index) A2780 [3] | IC50 [4] [µM] | SI (selectivity index) HepG2 [4] | IC50 [6] [µM] | SI (selectivity index) SMMC-7721 [6] | inhibition at 5 µM [7] [%] | inhibition at 5 µM [8] [%] | viability at 5 µM [9] [%] | IC50 [10] [µM] |
| --- | --- | --- | --- | --- | --- | --- | --- | --- | --- | --- | --- | --- | --- | --- | --- | --- |
| O=C1/C(=C/c2ccccc2C(F)(F)F)CN(S(=O)(=O)c2ccc(Br)cc2)C/C1=C\c1ccccc1C(F)(F)F [BAP 10] |  | 197 to 199 |  | 5.01 ± 0.45 | 2.9 | 17 ± 0.4 | 2.34 ± 0.39 | 6.2 | 14.7 ± 0.1 | 1.2 | 4.7 ± 0.1 | 3.6 | 59.2 ± 2.8 | 67.8 ± 3.2 | 83.8 ± 2.9 | 14.5 ± 0.1 |
| O=C1/C(=C/c2ccc(C(F)(F)F)cc2)CN(S(=O)(=O)c2ccc(Cl)cc2)C/C1=C\c1ccc(C(F)(F)F)cc1 [BAP 27] |  | 220 to 222 |  | 0.14 ± 0.04 | 65.0 | 15.8 ± 0.4 | 0.197 ± 0.05 | 46.2 | 1.4 ± 0.2 | 11.3 | 1.8 ± 0.2 | 8.8 | 69.9 ± 2.7 | 67.3 ± 2.2 | 86.4 ± 4.8 | 9.1 ± 0.2 |
| O=C1/C(=C/c2cccc(C(F)(F)F)c2)CN(S(=O)(=O)c2ccc(Br)cc2)C/C1=C\c1cccc(C(F)(F)F)c1 [BAP 19] |  | 135 to 137 |  | 0.12 ± 0.01 | 113.3 | 11 ± 0.2 | 0.21 ± 0.03 | 64.8 | 6.5 ± 0.2 | 1.7 | 7.6 ± 0.4 | 1.4 | 49.2 ± 3.7 | 56.3 ± 1.3 | 81.9 ± 0.6 | 13.6 ± 0.5 |

Continued, in another order:

| IC50 [5] [µM] | melting point [°C] | Compound | SI (selectivity), bound stated for A549 and A2780 together ([1]; A549 and A2780 vs HHL-5) | IC50 [1] [µM] | SI (selectivity index) A549 [1] | IC50 at 24 h [2] [µM] | IC50 [3] [µM] | SI (selectivity index) A2780 [3] | IC50 [4] [µM] | SI (selectivity index) HepG2 [4] | IC50 [6] [µM] | SI (selectivity index) SMMC-7721 [6] | inhibition at 5 µM [7] [%] | inhibition at 5 µM [8] [%] | viability at 5 µM [9] [%] | IC50 [10] [µM] |
| --- | --- | --- | --- | --- | --- | --- | --- | --- | --- | --- | --- | --- | --- | --- | --- | --- |
| 12.2 ± 0.4 |  | COc1cccc2c1C(=O)c1c(O)c3c(c(O)c1C2=O)C[C@@](O)(C(=O)CO)C[C@@H]3O[C@H]1C[C@H](N)[C@H](O)[C@H](C)O1 [DOX, Doxorubicin, reference compound] | > 40 | 0.29 ± 0.07 | 42.1 | 8.9 ± 0.5 | 0.19 ± 0.01 | 64.2 | ~1.3 | 6.8 | ~1.7 | 5.2 |  |  |  |  |
|  | 196 to 198 | O=C1/C(=C/c2cccc(C(F)(F)F)c2)CN(S(=O)(=O)c2ccc([N+](=O)[O-])cc2)C/C1=C\c1cccc(C(F)(F)F)c1 [BAP 15] |  | 0.13 ± 0.02 | 40.0 | 12.6 ± 0.1 | 0.14 ± 0.02 | 37.1 | 2.7 ± 0.1 | 4.7 | 5 ± 0.1 | 2.5 | 62.1 ± 0.7 | 60.8 ± 4.2 | 81.9 ± 1.2 | 5.2 ± 0.3 |
